Measurements: patent US20240197709A1, “POTENTIATING THE TUMOR-SELECTIVE EFFECTS OF NQO1-BIOACTIVATABLE AGENT BY USE OF CMET INHIBITOR” (The Trustees of Indiana University, priority 2022, published 2024)

How the values were obtained:
[1] = tested on: MIAPaCa2 NQO1−/− PDAC cell line; test: long-term survival, MIAPaCa2 NQO1 knock out; type: cell-based; conditions: β-lap alone
Description: Graph showing relative long-term survival plot of isogenic MIAPaCa2 NQO1+/+ versus MIAPaCa2 NQO1−/−PDAC cell lines treated with varying concentrations of β-lap alone.

[2] = tested on: cellular hydrogen peroxide (H2O2) levels in A549 cells; test: ROS-Glo H2O2 Assay; type: cell-based; conditions: A549, β-lap 3 μM, within 15 min, further increased at two hours
Experimental: FIG. 2-1A. […] Growth media was then replaced with fresh media containing β-lap (3 μM) alone, criz alone (1 μM) or combination±DIC (50 μM) and collected at 15 and 120 min to measure H2O2 production using the ROS-Glo™ H2O2 Assay from Promega (Madison, WI). The assay was performed in three biological replicates.
(§1) Next, we sought to investigate the mechanistic role of cMET in promoting resistance to ROS-induced DNA lesions caused by the futile redox cycling of β-lap with NQO1. […] In response to H2O2 stimulation, cMET can translocate into the nucleus where it interacts with PARP1 for activation to enhance the repair of ROS-induced DNA damage. […] Next we performed PARP1 immunoprecipitation studies to determine whether it associates with activated cMET in the nucleus following treatment with β-lap at increasing doses.

pY1234-cMET / PARP1 = test: PARP1 immunoprecipitation (co-IP); type: cell-based; conditions: A549, β-lap 3 and 6 μM for 2 h
Description: as §1

A549 shMET = test: migration and invasion, A549 shSCR versus shMET; type: cell-based; conditions: β-lap 3 μM 2 h, p<0.001
Experimental: FIG. 4H. Representative images of A549 shSCR versus shMET migration at 16 h following treatments with DMSO-treated control and β-Lap (3 μM) for 2 h. Scale bars, 50 μm;
FIG. 4I. Bar graph showing quantification of cell migration expressed as a percent of control (vehicle). Quantitative data were shown as the mean±SEM. **** p<0.0001, ** p<0.01, *p<0.05, ns=not significant.
FIG. 4J. Representative images of A549 shSCR versus shMET invasion using a matrigel-coated transwell system at 16 h following treatments with DMSO-treated control and β-Lap (3 μM) for 2 h. Scale bars, 50 μm;
FIG. 4K. Bar graph showing quantification of cell invasion expressed as a percent of control (vehicle). Quantitative data were shown as the mean±SEM. **** p<0.0001, ** p<0.01, *p<0.05, ns=not significant.
FIG. 4-1B. Bar graph illustrating percentage wound closure at indicated time points in A549 shSCR versus shMET treated with vehicle control or non-lethal β-lap for 2 h. Two-way ANOVA was used for statistical analyses; * p<0.05.
Overexpression of cMET in many cancers, including NSCLC and PDAC, is known to enhance cancer cell mobility, migration, and invasion (Spina, et al., Biomedicines 2015, 3(1), 71-88). […]

[3] = tested on: Vimentin protein expression in A549 shSCR; test: Western blot of Vimentin, A549 shSCR versus shMET; type: cell-based; conditions: sub-lethal β-lap 2 h, further reduced in shMET
Experimental: FIG. 4-1C. Western blot analysis of Vimentin protein expression in A549 shSCR versus shMET treated with vehicle control or non-lethal β-lap doses for 2 h.
Overexpression of cMET in many cancers, including NSCLC and PDAC, is known to enhance cancer cell mobility, migration, and invasion (Spina, et al., Biomedicines 2015, 3(1), 71-88). […] Thus, we investigated whether treatment with non-lethal β-lap in combination with inhibition of cMET activity (i.e., via pharmacological or genetic interventions) can target and mitigate cancer invasion or migration using Boyden chamber (Chen, Methods Mol Biol 2005, 294, 15-22; Eccles, et al., Biotechnol Annu Rev 2005, 11, 391-421) and wound-healing (Liang, et al., Nat Protoc 2007, 2(2), 329-33) assays. […] Likewise, we noted a decrease in the expression of a transcription factor that promotes invasion and migration, Twist (Khan et al., Tumour Biol 2013, 34(5), 2497-506), with the combination treatment relative to vehicle control (FIG. 4E, G). Addition of DIC to the combination treatment reverted Twist and E-cadherin protein expression to almost similar level as vehicle-treated control. shRNA mediated knockdown of cMET expression in A549 and Capan2 decreased their migratory and invasive phenotypes relative to their corresponding shSCR controls, which is consistent with the canonical role of cMET in invasive cancers. […]

A549 shSCR 3D spheroids = test: 3D spheroid growth and viability, A549 shSCR; type: cell-based; conditions: β-lap 3 μM
Experimental: (§2) FIG. 5A. Representative brightfield images of A549 shSCR versus shMET 3D spheroids treated with vehicle control (0.1% DMSO) or β-lap (3 μM, which is sub-lethal in A549 NSCLC cells in 2D long-term survival assays) imaged at indicated times to monitor microtumor spheroid growth. Scale bar=250 μm.
(§3) FIG. 5B. Graphical comparison of 3D spheroid (microtumor) growth of A549 shSCR vs shMET at indicated treatments over time relative to initial 3D spheroid area (day 1).
(§4) FIG. 5C. Quantification of 3D spheroid viability at day 10 (in panel A) using CellTiter-Glo® 3D Cell Viability Assay.
(§5) Studies have shown that drug sensitivity of cancer cells cultured in three-dimension (3D) more accurately predicts their sensitivity in vivo.30-31 Thus, we utilized 3D tumor spheroid growth of our isogenic A549 shSCR or shMET cancer cell lines to closely recapitulate the cell-cell interactions of human tumors32-33. After three days of spheroid formation, A549 shSCR and shMET microtumors were exposed to vehicle control (0.1% DMSO) or β-lap (3 μM, sub-lethal concentration in 2D culture for A549 parental line), and imaged over time for 3D spheroid tumor growth for comparison. […] Additionally, the viability of A549 shSCR versus shMET 3D spheroids treated with vehicle control and β-lap at day 10 was determined using CellTiter-Glo® 3D Viability Assay (FIG. 5C) for comparison. […]

A549 shMET 3D spheroids = test: 3D spheroid growth and viability, A549 shMET; type: cell-based; conditions: β-lap 3 μM
Experimental: as §2, §3, §4, §5

[4] = tested on: A549 NSCLC with transient MET knockdown (siMET); test: long-term survival, A549 transient MET knockdown; conditions: A549, two different siRNAs
Experimental: Graph showing relative long-term survival studies in A549 NSCLC with transient MET knockdown (siMET) compared to siSCR control. β-lap was added±DIC (50 μM) for 2 h after RNAi transfection (48 h) with two different siRNA sequences.
Next, we investigated whether loss of cMET activity arising from genetic depletion of MET expression could enhance the therapeutic effect of β-lap at lower concentrations.

## CC1(C)CCC2=C(O1)c1ccccc1C(=O)C2=O [β-lap, β-Lapachone]
[1]
  sensitivity after knocking out NQO1: more resistant
[2]
  relative amount of cellular H2O2: significantly increased
pY1234-cMET / PARP1
  pY1234-cMET co-immunoprecipitated with PARP1: increasing levels of pY1234-cMET with PARP1
A549 shMET
  cell invasion: significantly reduces
  cell migration: significantly reduces
[3]
  Vimentin expression: decreased Vimentin expression
A549 shSCR 3D spheroids
  3D spheroid (microtumor) growth over time: relatively negligible microtumor lethality
  3D spheroid viability at day 10 (CellTiter-Glo 3D): no significant lethality
A549 shMET 3D spheroids
  3D spheroid (microtumor) growth over time: potentiated the lethal effect
  3D spheroid viability at day 10 (CellTiter-Glo 3D): more hypersensitive
[4]
  sensitivity to β-lap compared to siSCR control: sensitization
